Test system: Lemna minor
Assay: Lemna minor in vitro relative growth rate and survival with herbicide Profoxydim
Format: in vivo
Conditions: one week; for relative growth rate (RGR) of Lemna minor plants, substance alone: 10 mg/L in Hoagland medium
Description: The experiment was carried out in Lemna minor growing under in vitro conditions. A stock culture of Lemna minor was maintained on modified Hoagland medium in a controlled environment. […] An experiment was conducted, using fronds free from any visible chlorosis which were taken from the stock cultures and exposed to diverse treatments. For each treatment, six repetitions with three fronds per repetition as the initial frond number were used. […] The multiplate was covered with a transparent cover to prevent evaporation. The relative growth was calculated after one week of incubation in the described conditions, and the survival rate was evaluated.

Structure (SMILES): COc1cc(/C=C/C(=O)O)ccc1O [ferulic acid]
- relative growth rate (RGR) of Lemna minor plants, substance alone: hindering Lemna minor growth
- protective effect on relative growth rate in combination with the herbicide Profoxydim (10 mg/L with 10 mg/L Profoxydim): Neither chitosan nor ferulic acid in combination with the herbicide showed this protective effect

Structure (SMILES): CCCC(=NOCC(C)Oc1ccc(Cl)cc1)C1=C(O)CC(C2CCCSC2)CC1=O (stereo not drawn) [Profoxydim]
- relative growth rate (RGR) of Lemna minor plants, substance alone: drastically reduced the RGR
